{"source": "patent US8648112B2", "about": "“Therapeutic uses of urolithins” (The Regents of the University of California, priority 2006, dated 2014)", "key": {"[1]": {"test_system": "Hi-Myc prostate cancer cell line", "experiment": "Antiproliferative cell assay (CellTiter-Glo), Hi-Myc", "format": "cell-based", "settings": "Hi-Myc (mouse), 48 h exposure, read-out: IC50 against prostate cancer cell line HiMyc", "experimental": "(§1) Cell Culture Materials. The 22Rv1, DU145, LNCaP and PC3 prostate cancer cell lines were obtained from American Type Culture Collection (ATCC, Rockville, Md.). The LNCaP-AR and Hi-Myc cell lines were a kind donation by Dr. C. Sawyers (David Geffen School of Medicine, UCLA, Los Angeles, Calif.). DU145, 22Rv1, LNCaP, LNCaP-AR, and PC3 cells were grown in RPMI 1640; Hi-Myc cells were grown in Isecove's Modified Dulbecco's Medium. All media contained 10% fetal bovine serum (FBS) in the presence of 100 U/mL penicillin and 0.1 g/L streptomycin. RWPE-1 prostate cells were grown in Defined Keratinocyte Serum Free Medium (DKSFM) containing epidermal growth factor (EGF), insulin and fibroblast growth factor (FGF). Cells were incubated at 37° C. with 95% air and 5% CO2. All cells were maintained below passage 20 and used in experiments during the linear phase of growth.\n(§2) Proliferation was measured utilizing the CellTiter-Glo® Luminescent Cell Viability Assay (Technical Bulletin #288, Promega Corp., Madison, Wis.). When added to cells, the assay reagent produces luminescence in the presence of ATP from viable cells. Cells were plated in 96-well plates at a density of 10,000 cells/well and incubated for 24 hours. Test samples were solubilized in DMSO by sonication, filter sterilized and diluted with media to the desired treatment concentration. Cells were treated with 100 μLcontrol media, vehicle control (DMSO<0.2% of total) or test samples and incubated for 48 h drug exposure duration at 6.25, 12.5, 25, 50 and 100 μg/mL concentrations. At the end of 48 h, plates were equilibrated at room temperature for 30 min; 100 μL of the assay reagent was added to each well and cell-lysis was induced on an orbital shaker for 2 min. Plates were incubated at room temperature for 10 min to stabilize the luminescence signal and results were read on an Orion Microplate Luminometer (Bertholds Detection Systems, Pforzheim, Germany). All plates had control wells containing medium without cells to obtain a value for background luminescence. Data are expressed as percentage of untreated cells (i.e. treatment value-blank/vehicle value-blank), mean±SE for three replications."}, "[2]": {"test_system": "PC3 prostate cancer cell line", "experiment": "Antiproliferative cell assay (CellTiter-Glo), PC3", "format": "cell-based, human", "settings": "Homo sapiens, 48 h exposure, read-out: IC50 against prostate cancer cell line PC3", "experimental": "as §1, §2"}, "PC3 cells": {"test_system": "PC3 cells", "experiment": "Assessment of apoptosis (Cell Death Detection ELISA), PC3", "format": "cell-based, human", "settings": "48 h, p=0.05", "experimental": "(§3) Assessment of apoptosis. Apoptosis was assessed utilizing the Cell Death Detection ELISAPLUS Assay (Boehringer Mannheim, Indianapolis, Ind.). This assay is a photometric enzyme-linked immunoassay that quantitatively measures the internucleosomal degradation of DNA, which occurs during apoptosis. Specifically, the assay detects histone associated mono- and oligonucleosomes, which are indicators of apoptosis. Cells (22RV1, PC-3, LNCaP, LNCaP-AR), were plated in 60 mm dishes at a density of 100,000 cells/dish and allowed to attach for 24 hours. Cells were treated with vehicle control (100% DMSO; 0.3% final concentration), or urolithin B (0-50 μg/mL or 0-236 μM) for 48 hours. Following treatments, non-adherent cells were collected and pelleted at 200×g for ten minutes. The supernatant was discarded; the cell pellet was washed with cold CMF-PBS and re-centrifuged. […] Both live and dead cells were then counted via trypan blue exclusion (Pierce, Rockford, Ill.) and equal numbers of cells were added to the microtiter plate for all treatment groups and apoptosis assay was performed according to the manufacturer's instructions. Data are expressed as absorbance at 405 nm of each sample over vehicle controls as follows=treatment value-blank/vehicle value-blank."}, "LNCaP-AR cells": {"test_system": "LNCaP-AR cells", "experiment": "Assessment of apoptosis (Cell Death Detection ELISA), LNCaP-AR", "format": "cell-based, human", "settings": "48 h, p=0.01", "experimental": "as §3"}, "[3]": {"test_system": "22Rv1 prostate cancer cell line", "experiment": "Antiproliferative cell assay (CellTiter-Glo), 22Rv1", "format": "cell-based, human", "settings": "Homo sapiens, 22Rv1, 48 h, 48 h exposure, read-out: IC50 against prostate cancer cell line 22 Rv1", "experimental": "as §1, §2"}, "22Rv1 cells": {"test_system": "22Rv1 cells", "experiment": "Assessment of apoptosis (Cell Death Detection ELISA), 22Rv1", "format": "cell-based, human", "settings": "48 h, p=0.05", "experimental": "as §3"}, "[4]": {"test_system": "LNCaP prostate cancer cell line", "experiment": "Antiproliferative cell assay (CellTiter-Glo), LNCaP", "format": "cell-based, human", "settings": "Homo sapiens, 48 h exposure, read-out: IC50 against prostate cancer cell line LNCaP", "experimental": "as §1, §2"}, "[5]": {"test_system": "DU145 prostate cancer cell line", "experiment": "Antiproliferative cell assay (CellTiter-Glo), DU145", "format": "cell-based, human", "settings": "Homo sapiens, DU-145, 48 h exposure, read-out: IC50 against prostate cancer cell line DU145", "experimental": "as §1, §2"}, "[6]": {"test_system": "LNCaP-AR prostate cancer cell line", "experiment": "Antiproliferative cell assay (CellTiter-Glo), LNCaP-AR", "format": "cell-based, human", "settings": "Homo sapiens, 48 h exposure, read-out: IC50 against prostate cancer cell line LNCap-AR", "experimental": "as §1, §2"}, "[7]": {"test_system": "human pancreatic cancer cell line ASPC-1", "experiment": "Antiproliferative activity against pancreatic cancer cells (CellTiter-Glo), ASPC-1", "format": "cell-based", "settings": "100 μg/mL, 48 hrs", "experimental": "(§4) EA and EA-metabolites (gallic and gallagic acids, urolithin B and methylated-urolithin A) were evaluated for antiproliferative activity against the human pancreatic cancer cell lines ASPC-1 and BXPC-3. The cells were grown to a concentration of 10,000 cells per well; and were then resuspended in medium containing the vehicle control or the indicated compound: Ellagic acid, urolithin A, methyl urolithin A, or urolithin B, at a concentration of 100 μg/mL. The cells were incubated for 48 hrs, and the viability assayed byCellTiter-Glo® Luminescent Cell Viability Assay (Technical Bulletin #288, Promega Corp., Madison, Wis.)."}, "LNCaP cells": {"test_system": "LNCaP cells", "experiment": "Assessment of apoptosis (Cell Death Detection ELISA), LNCaP", "format": "cell-based, human", "settings": "48 h, p=0.01", "experimental": "as §3"}, "[8]": {"test_system": "human pancreatic cancer cell line BXPC-3", "experiment": "Antiproliferative activity against pancreatic cancer cells (CellTiter-Glo), BXPC-3", "format": "cell-based", "settings": "100 μg/mL, 48 hrs", "experimental": "as §4"}, "[9]": {"test_system": "human colon cancer cell line HCT-116", "experiment": "Antiproliferative activity against colon cancer cells (CellTiter-Glo)", "format": "cell-based", "settings": "100 μg/mL, 48 hrs", "experimental": "as §4, with “colon” for “pancreatic”, “line HCT-116.” for “lines ASPC-1 and BXPC-3.”, “well in a 96 well format;” for “well;”, “containing” for “containing the”, “by the CellTiter-Glo®” for “byCellTiter-Glo®”"}}, "note": "pIC50: −log10 of the molar value.", "data": [{"smiles": "O=c1oc2cc(O)ccc2c2ccccc12", "note": "[Urolithin B, 3-hydroxy-6H-dibenzo[b,d]pyran-6-one]", "values": [{"measurement": "pIC50", "setting": "[1]", "result": 4.22}, {"measurement": "pIC50", "setting": "[2]", "result": 3.90}, {"measurement": "concentration showing statistically significant pro-apoptotic effect", "setting": "PC3 cells", "result": 29.5, "unit": "µM"}, {"measurement": "concentration showing statistically significant pro-apoptotic effect", "setting": "LNCaP-AR cells", "result": 59, "unit": "µM"}, {"measurement": "pIC50", "setting": "[3]", "result": 3.93}, {"measurement": "concentration showing statistically significant pro-apoptotic effect", "setting": "22Rv1 cells", "result": 59, "unit": "µM"}, {"measurement": "pIC50", "setting": "[4]", "result": 4.04}, {"measurement": "pIC50", "setting": "[5]", "result": 4.23}, {"measurement": "pIC50", "setting": "[6]", "result": 4.55}, {"measurement": "anti-proliferative activity, rank order", "setting": "[7]", "result": "urolithin A is the most active, then ellagic acid, urolithin B and methyl urolithin A"}, {"measurement": "concentration showing statistically significant pro-apoptotic effect", "setting": "LNCaP cells", "result": 118, "unit": "µM"}, {"measurement": "anti-proliferative activity, rank order", "setting": "[8]", "result": "urolithin A is the most active, then ellagic acid, urolithin B and methyl urolithin A"}, {"measurement": "anti-proliferative activity, rank order", "setting": "[9]", "result": "urolithin A is the most active, then ellagic acid, urolithin B and methyl urolithin A"}]}]}
